For assay [1], the system named is ADP induced human platelet aggregation. The assay can be described thus: ADP-induced human platelet aggregation, 96-well microplate method. The format is cell-based.
Another assay has as its target T1, platelet P2X1 receptors (Homo sapiens, UniProt P51575).
T1 sequence (P51575 1-399): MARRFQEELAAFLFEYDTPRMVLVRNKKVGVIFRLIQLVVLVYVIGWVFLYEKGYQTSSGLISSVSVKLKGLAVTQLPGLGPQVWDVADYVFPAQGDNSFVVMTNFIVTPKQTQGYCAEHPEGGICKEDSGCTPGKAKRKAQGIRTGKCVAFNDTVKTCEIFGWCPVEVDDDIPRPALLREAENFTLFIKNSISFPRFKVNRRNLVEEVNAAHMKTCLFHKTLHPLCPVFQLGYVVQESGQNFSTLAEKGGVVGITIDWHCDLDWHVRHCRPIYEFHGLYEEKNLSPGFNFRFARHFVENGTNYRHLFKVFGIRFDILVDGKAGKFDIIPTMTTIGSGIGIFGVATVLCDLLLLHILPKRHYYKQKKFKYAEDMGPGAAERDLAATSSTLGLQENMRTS
Description: P2X1-mediated entry of extracellular Ca2+. The format is cell-based.

The test system of assay [2] is ADP induced human platelet aggregation. Description: ADP induced human platelet aggregation by optical aggregometry. The format is cell-based. The settings on record: 25 and 100 nM; pre-incubation 0, 5, 15 min; data not shown.
Assay [3] relates to GPIIb-IIIa and P-selectin on the surface of human platelets. Description: Reversibility of inhibition of activation marker expression after dilution. The format is cell-based. The settings on record: 30 min with 10 nM, then 100x dilution with platelet poor plasma; 20 μM ADP.
The next assay deals with human P2Y2 receptors (Homo sapiens, UniProt P41231). Description: Effect on human P2Y2 receptors. The settings on record: data not shown.
The target of another assay is human P2Y4 receptors (Homo sapiens, UniProt P51582). The assay can be described thus: Effect on human P2Y4 receptors. The note with it: data not shown.
A further assay deals with human P2Y6 receptors (Homo sapiens, UniProt Q15077). Description: Effect on human P2Y6 receptors. The note with it: data not shown.
The target of assay [4] is human platelet P2Y1 receptors (Homo sapiens, UniProt P47900). The note with it: 3 μM ADP; human whole blood; N=3 unless stated.

“Also recorded” adds a separate entry of the source. Read-outs that look alike come from different tables or passages of the source.

Sequence of human P2Y4 receptors (P51582 whole entry): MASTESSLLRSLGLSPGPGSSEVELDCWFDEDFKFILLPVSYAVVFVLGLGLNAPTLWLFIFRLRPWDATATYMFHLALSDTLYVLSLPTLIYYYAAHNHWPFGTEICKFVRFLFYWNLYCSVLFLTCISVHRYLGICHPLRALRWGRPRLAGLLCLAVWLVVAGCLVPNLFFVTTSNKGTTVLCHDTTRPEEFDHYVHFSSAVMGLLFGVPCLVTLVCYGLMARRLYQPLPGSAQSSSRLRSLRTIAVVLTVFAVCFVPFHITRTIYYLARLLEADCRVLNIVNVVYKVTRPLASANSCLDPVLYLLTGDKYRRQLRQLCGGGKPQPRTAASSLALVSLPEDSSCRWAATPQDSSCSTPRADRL
Sequence of human P2Y6 receptors (Q15077 whole entry): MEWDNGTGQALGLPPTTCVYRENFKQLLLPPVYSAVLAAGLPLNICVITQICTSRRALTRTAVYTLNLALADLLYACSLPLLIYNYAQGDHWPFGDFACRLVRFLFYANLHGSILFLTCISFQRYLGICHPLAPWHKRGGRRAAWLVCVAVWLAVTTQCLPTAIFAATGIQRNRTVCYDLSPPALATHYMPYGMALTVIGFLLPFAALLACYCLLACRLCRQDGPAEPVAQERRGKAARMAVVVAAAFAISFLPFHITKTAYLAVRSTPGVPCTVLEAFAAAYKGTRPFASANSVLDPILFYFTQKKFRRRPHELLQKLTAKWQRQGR
Sequence of human P2Y2 receptors (P41231 whole entry): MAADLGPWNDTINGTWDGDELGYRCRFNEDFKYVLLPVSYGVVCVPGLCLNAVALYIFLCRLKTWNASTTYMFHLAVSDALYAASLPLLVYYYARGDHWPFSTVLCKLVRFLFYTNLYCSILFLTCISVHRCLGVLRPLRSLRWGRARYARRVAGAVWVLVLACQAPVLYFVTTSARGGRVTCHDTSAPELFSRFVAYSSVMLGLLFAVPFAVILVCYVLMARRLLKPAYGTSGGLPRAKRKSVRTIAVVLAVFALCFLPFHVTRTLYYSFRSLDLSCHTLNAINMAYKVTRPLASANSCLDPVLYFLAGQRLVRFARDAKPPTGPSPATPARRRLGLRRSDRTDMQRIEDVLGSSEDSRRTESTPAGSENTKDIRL
Sequence of human platelet P2Y1 receptors (P47900 whole entry): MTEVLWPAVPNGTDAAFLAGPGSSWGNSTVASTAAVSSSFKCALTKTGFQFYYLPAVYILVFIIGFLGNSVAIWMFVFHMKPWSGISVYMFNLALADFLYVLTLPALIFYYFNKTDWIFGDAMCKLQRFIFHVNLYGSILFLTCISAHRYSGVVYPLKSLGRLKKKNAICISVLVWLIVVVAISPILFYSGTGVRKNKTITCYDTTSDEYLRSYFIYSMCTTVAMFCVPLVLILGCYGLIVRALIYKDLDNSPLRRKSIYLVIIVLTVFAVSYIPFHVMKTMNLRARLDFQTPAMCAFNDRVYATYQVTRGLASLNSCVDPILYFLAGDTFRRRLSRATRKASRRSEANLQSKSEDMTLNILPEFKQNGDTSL

In general, IC50 refers to the concentration that gives 50% inhibition. On to `CSc1nc(N)c2ncn([C@@H]3O[C@H](COP(=O)([S-])OP(=O)([O-])C(Cl)P(=O)([O-])OP(=O)([S-])OC[C@H]4O[C@@H](n5cnc6c(N)nc(SC)nc65)[C@H](O)[C@@H]4O)[C@@H](O)[C@H]3O)c2n1.[Na+].[Na+].[Na+].[Na+]` (mixture of isomers) [Compound 5, P^1,P^4-di-(2-methylthio-5′-adenosine) P^1,P^4-dithio-P^2,P^3-chloromethylenetetraphosphate], for which the IC50 in assay [1] (read-out: IC50, nM (95% Confidence Interval), no pre-incubation, 3 μM ADP) is 36.1 nM; in assay [1] (read-out: IC50, nM (95% Confidence Interval), pre-incubation with test compound, 5 μM ADP), 11.6 nM; in assay [1] (read-out: IC50, nM (95% Confidence Interval), pre-incubation with test compound, 20 μM ADP), 27.6 nM. The “P2X1 agonist activity” value on platelet P2X1 receptors is reported as “practically devoid of agonist activity; also recorded: did not have an effect”. Besides, the “Pre-incubation time for full pre-incubation effect” value in assay [2] is on record as at most 15 min. Further, in assay [3], the “Recovery of ability to express the activation markers after dilution” value is listed as 80–90%. Also, at human P2Y2 receptors, the “Effect on human P2Y2 receptors” value is listed as “did not have an effect”. Also, the “Effect on human P2Y4 receptors” value at human P2Y4 receptors was “did not have an effect”. Further, at human P2Y6 receptors, the “Effect on human P2Y6 receptors” value is “did not have an effect”.

On to `CSCCNc1nc(SCCC(F)(F)F)nc2c1ncn2[C@@H]1O[C@H](COP(=O)(O)OP(=O)(O)C(Cl)(Cl)P(=O)(O)O)[C@@H](O)[C@H]1O` [Cangrelor], for which, in assay [4], the “P2Y1 inhibition IC50±SEM” value is listed as “Not inhibitor”.

For the origin of these results see paper PMC4674339 (European journal of medicinal chemistry, 2015).
